From patent US5670538A, “Use of prodelphinidins for obtaining medicaments intended for the treatment of arthrosis” (Laboratoires Dolisos, priority 1992, dated 1997)

Columns and labels:
[1] = test system: human articular chondrocytes; experiment: Radioimmunoassay of prostaglandins E2 (PGE2) produced in tridimensional culture of human chondrocytes; format: cell-based; conditions: for Amounts of PGE2 in the culture media taken on the 4th and 8th day: 1% Ultroser G, incubation of the 4th to 8th day; for PGE2 in the culture medium: foetal calf serum
Excerpt: The model used for testing the proanthocyanidols, namely the tridimensional culture of human chondrocytes allows chondrorepair to be quantified by the production of matrix substances: type II collagen, proteoglycans, and chondroresorption by the reduction in the levels of prostaglandin E2 and of OH° and O°2 type free radicals produced.
(§1) 1. Tridimensional culture of human chondrocytes
(§2) The technique used has been described in detail (Bassleer et al., 1986).
(§3) Briefly, human articular chondrocytes are cultivated in DMEM (Dulbecco's Modification of Eagle's Medium--ICN--Gand, Belgium) with either Ultroser G 1% (GIBCO, Gand, Belgium) or 10% of foetal calf serum (ICN--Gand--Belgium), and 50 μg of ascorbic acid/ml added to it. The cartilage originates from the apparently normal zone of heads of human femur suffering from arthrosis, immediately after an operation carried out to insert a total hip prosthesis; it can also originate from the head of a healthy femur, but which has undergone a traumatism and has had to be replaced. This cartilage is then digested by clostridial collagenase 1 mg/ml (Boehringer-Mannheim, Germany) in a buffer (NaCl 120 mM, CaCl2 1 mM, KCl 5 mM, KH2 PO4 1 mM, NaHCO3 25 mM, glucose 2 mM and Hepes 30 mM, pH 7.4) for 24 hours. After 6 successive washings and centrifugations, the chondrocytes, isolated from their matrix, are cultured in flasks (10^6 cells/2 ml of culture medium) placed on a gyrator (10 rpm). The cultures are kept at 37° C. in an atmosphere of air 95%-CO2 5% (Bassleer et al., 1986). Cultivated under these conditions, after 4 to 5 days the chondrocytes form a tridimensional cluster in each flask. These clusters, which at first have a flocculent appearance, then tend to condense during the culture. After two weeks, their diameter is, in general, from 1 to 2 mm.
(§4) The fresh weight of the clusters increases with the duration of the culture, above all during the few first days.
4. Radioimmunoassay of prostaglandins E2 (PGE2)
The radioimmunoassay of PGE2s is carried out according to the method described by Serteyn et al., 1988. The PGE2 is obtained from Sigma (Aldrich-Chemie, Steinheim, Germany) and the ^3 H-PGE2 from NEN (Du Pont de Nemours, Brussels, Belgium). 0.1 ml of incubation buffer (10 mM Tris-HCl […], 0.5% sodium azide (W/V), 1% gelatine (W/V), pH 7.4), 0.1 ml of ^3 H-PGE2 (diluted so as to obtain 10,000 cpm/0.1 ml) and 0.1 ml of antiserum (1/4000) are added successively to 0.1 ml of the sample to be assayed or the reference antigen (0-500 pg). After incubation for 48 hours at 4° C., the free antigen is separated from the antigens bound to the antibodies by a precipitation with carbon-DEXTRAN T70 (0.5 ml per tube). The carbon-Dextran solution contains 5 g/l of neutral carbon, 500 mg of Dextran 70/l. After centrifugation (20 minutes, 3000 rpm, 4° C.), the radioactivity present in the supernatant is measured with a beta counter (Beckman) using liquid scintillation. The sensitivity of the assay is 20 pg/ml.
The accuracy of the method is 5%. The coefficients of the intra- and inter assay variation are 6% and 10% respectively. There is no cross reaction between this anti PGE2 antiserum and other prostanoids (Thromboxane B2, G-keto-PGF1-alpha, PGF2, PGA2), nor with the fatty acids such as arachidonic acid, oleic acid or also linoleic acid.
The results are expressed in quantities of PG, coll. II or PGE2 measured in the culture medium (CM) per μg of DNA. The cumulative measurements are obtained by adding the quantities assayed in the CMs to each renewal of the CM, for successive periods: 0 to 4, 4 to 8, 8 to 12 days of culture. The total production of PG is calculated by adding the cumulative quantities measured in the CMs to those measured in the corresponding clusters. The mean and the standard deviation (m±s.d) are calculated. Comparison of the mean values is carried out using the Mann-Whitney U statistical test. […]

[2] = test system: human articular chondrocytes; experiment: Synthesis of DNA by incorporation of 3H-thymidine in the chondrocytes, index of cell proliferation; format: cell-based; conditions: 1, 10 and 100 pg/ml (so in the source); relative to control values
Method: as §1, §2, §3, §4
5. Analysis of the synthesis of DNA by measurement of the incorporation of ^3 H-thymidine
After different culture durations, the chondrocytes are cultivated in nutritive medium with the addition of 2 uCi/ml (5 Ci/mmole) of methyl ^3 H-thymidine (^3 H-TDN) (Amersham, Brussels, Belgium) for 24 hours. […]
The radioactivity incorporated in the cluster is then measured using a beta scintillation counter.

[3] = Production of OH° hydroxyl radicals (gamma irradiation, KMB substrate, ethylene by gas chromatography); format: biochemical; conditions: for % inhibition of the production of hydroxyl radicals: Substrate: KMB, relative to the controls; for Production of free radicals from KMB, effect in words: Table 22
Method: 8. Production of OH° hydroxyl radicals
The products are dissolved in 10 ml flasks at the required concentration in phosphate buffer: 6.6.10^-2 M, pH 7.4 in the presence of alpha keto methiolbutyric acid (10^-3 M: KMB). After the flasks have been hermetically sealed, the samples are irradiated with gamma rays provided by a ^137 Cs source.
The OH° radicals produced by the gamma radiation react with the KMB to produce the ethylene detected by a gas chromatograph. The height of the ethylene peak is proportional to the quantity of free radicals formed in the medium (Weis et al., 1978).

[4] = Antilipoperoxidizing activity (gamma irradiation, linoleic acid substrate, pentane); format: biochemical; conditions: for % inhibition of pentane release from linoleic acid (lipid peroxidation): Substrate: Linoleic acid, relative to the controls; for Production of free radicals from linoleic acid, effect in words: Table 23
Method: 9. Antilipoperoxidizing activity
Similar to the preceding anti-radical method but where the KMB is replaced by linoleic acid (C18: 2), the gamma radiation releases pentane which is analyzed. The height of the pentane peak is proportional to the quantity free of radicals formed in the medium.

ferricytochrome C = experiment: Control experiments: direct reduction of ferricytochrome C by the product itself; format: biochemical; conditions: effect not quantifiable
Excerpt: This effect not being quantifiable, no conclusion can consequently be drawn on a possible inhibiting effect of these products on the production of the superoxide anion by the activated PMNs.

Row | Structure (SMILES) | Amounts of PGE2 in the culture media taken on the 4th and 8th day ([1]; 1 μg/ml) | Amounts of PGE2 in the culture media taken on the 4th and 8th day ([1]; 10 μg/ml) | Amounts of PGE2 in the culture media taken on the 4th and 8th day ([1]; 100 μg/ml) | PGE2 in the culture medium ([1]; 0-4 days, 10 μg/ml) [pg/μg DNA/96 H] | PGE2 in the culture medium ([1]; 0-4 days, 100 μg/ml) [pg/μg DNA/96 H] | PGE2 in the culture medium ([1]; 4-8 days, 10 μg/ml) [pg/μg DNA/96 H] | PGE2 in the culture medium ([1]; 4-8 days, 100 μg/ml) [pg/μg DNA/96 H] | Incorporation of 3H thymidine in the chondrocytes [2] | % inhibition of the production of hydroxyl radicals ([3]; 10^-3 M) [%] | % inhibition of the production of hydroxyl radicals ([3]; 10^-4 M) [%] | % inhibition of the production of hydroxyl radicals ([3]; 10^-5 M) [%] | Production of free radicals from KMB, effect in words [3] | % inhibition of pentane release from linoleic acid (lipid peroxidation) ([4]; 10^-3 M) [%] | % inhibition of pentane release from linoleic acid (lipid peroxidation) ([4]; 10^-4 M) [%] | % inhibition of pentane release from linoleic acid (lipid peroxidation) ([4]; 10^-5 M) [%] | Production of free radicals from linoleic acid, effect in words [4] | Direct reduction of ferricytochrome C (ferricytochrome C)
1 | Oc1cc(O)c2c(c1)O[C@H](c1cc(O)c(O)c(O)c1)[C@@H](O)[C@@H]2c1c(O)cc(O)c2c1O[C@H](c1cc(O)c(O)c(O)c1)[C@H](O)C2 [Substance Ia, GC-(4 alpha→8) EGC] | 91.5 ± 9 pg/μg of DNA | 44 ± 0.6 pg/μg of DNA | 25 ± 13 pg/μg of DNA | 312 ± 15 | 143 ± 25 | 27 ± 2.5 | 25 ± 3.5 | None of the substances Ia, lb and Ic modifies the incorporation | 78 | 41 | 22 | significantly inhibits | 94 | 42 | 0 | significantly inhibits | powerful reducers of ferricytochrome C
2 | Oc1cc(O)c2c(c1)O[C@H](c1cc(O)c(O)c(O)c1)[C@@H](O)[C@@H]2c1c(O)cc(O)c2c1O[C@H](c1cc(O)c(O)c(O)c1)[C@@H](O)C2 [Substance Ib, GC-(4 alpha→8) GC] | 129 ± 19 pg/μg of DNA | 76 ± 14 pg/μg of DNA | 48 ± 15 pg/μg of DNA | 130 ± 21 | 121 ± 16 | 30 ± 1.7 | 25 ± 1 | None of the substances Ia, lb and Ic modifies the incorporation | 80 | 46 | 25 | significantly inhibits | 93 | 45 | 0 | significantly inhibits | powerful reducers of ferricytochrome C
3 | Oc1cc(O)c2c(c1)O[C@H](c1cc(O)c(O)c(O)c1)[C@@H](O)[C@@H]2c1c(O)cc(O)c2c1O[C@H](c1cc(O)c(O)c(O)c1)[C@@H](O)[C@@H]2c1c(O)cc(O)c2c1O[C@H](c1cc(O)c(O)c(O)c1)[C@@H](O)C2 [Substance Ic, GC-(4 alpha→8) GC-(4 a→8)-GC] | 101 ± 7 pg/μg of DNA | 81 ± 12 pg/μg of DNA | 39 ± 10 pg/μg of DNA | 160 ± 17 | 153 ± 15 | 35.5 ± 2.1 | 29 ± 3.5 | None of the substances Ia, lb and Ic modifies the incorporation | 74 | 39 | 20 | significantly inhibits | 91 | 40 | 0 | significantly inhibits | powerful reducers of ferricytochrome C
